Values after ≈ are worked out from the molar mass of the structure shown.

This assay has as its system M. tuberculosis (PA-resistant). The assay is described as follows: microbe, parasite or virus in culture. It counts as cell-based, Mycobacterium tuberculosis. The settings on record: for MIC: Mycobacterium tuberculosis.

Turning to `CC(=O)NC[C@H]1CN(c2ccc(-c3cnc(O[C@@H]4COc5nc([N+](=O)[O-])cn5C4)nc3)c(F)c2)C(=O)O1` [Example 8, (S,S)—N-(3-{3-Fluoro-4-[2-(2-nitro-6,7-dihydro-5H-imidazo[2,1-b][1,3]oxazin-6-yloxy)-pyrimidin-5-yl]-phenyl}-2-oxo-oxazolidin-5-ylmethyl)-acetamide], the “MIC against PA-824 resistant strain of Mycobacterium tuberculosis H37Rv” value amounted to 0.5 micg/mL and the MIC came out at 0.5 µg/mL (≈ 0.974 µM).
Consider `CC(=O)NC[C@H]1CN(c2ccc(-c3ccc(CO[C@@H]4COc5nc([N+](=O)[O-])cn5C4)cc3)c(F)c2)C(=O)O1` [Example 31, (S,S)—N-{3-[2-Fluoro-4′-(2-nitro-6,7-dihydro-5H-imidazo[2,1-b][1,3]oxazin-6-yloxymethyl)-biphenyl-4-yl]-2-oxo-oxazolidin-5-ylmethyl}-acetamide], for which the “MIC against PA-824 resistant strain of Mycobacterium tuberculosis H37Rv” value came to 1 micg/mL and the MIC is 1 µg/mL (≈ 1.9 µM).
Regarding `CC(=O)NC[C@H]1CN(c2ccc(N3CCOCC3)c(F)c2)C(=O)O1` [Linezolid, linezolid, reference compound], the MIC was 0.5 µg/mL (≈ 1.48 µM).
For `O=[N+]([O-])c1cn2c(n1)OC[C@@H](OCc1ccc(OC(F)(F)F)cc1)C2` [PA-824, reference compound], the “activity against PA-824 resistant strain (in words)” value is on record as “loses its activity” and the MIC is greater than 32 µg/mL.

Values taken from patent US7666864B2, “Bicyclic nitroimidazole-substituted phenyl oxazolidinones” (priority 2008, dated 2010).
